{
  "source": "patent US8962552B2",
  "about": "“Nanoparticles of therapeutic agents having low water solubility” (Centre Nationale de Recherche Scientifique, priority 2007, dated 2015)",
  "key": {"[1]": {"experiment": "Nanoparticle size, polydispersity index and surface potential by light scattering", "type": "physicochemical", "protocol": "In general, the nanoparticles thus obtained have a mean size ranging from 30 to 650 nm, in particular from 30 to 500 nm and in particular from 50 to 250 nm, or even from 100 to 200 nm, measured by light scattering using a Coulter® N4MD nanosizer from Coulter Electronics, Hialeah, USA.\n4 mg of squalenoylpaclitaxel are dissolved in […] of ethanol (2.5 mg/ml) and added dropwise with continuous stirring (speed of 500 rpm) to 1 ml of an aqueous solution containing 5% dextrose. The squalenoylpaclitaxel self-assembles in the form of nanoparticles with a size of between 100 and 200 nm. The ethanol is then completely evaporated off under reduced pressure using a Rotavapor® to obtain a nanoparticulate suspension of squalenoylpaclitaxel at a final concentration of 4 mg/ml.\nVariable amounts (stated in Table 1 below) of squalenoylpaclitaxel are dissolved in 0.25 ml of tetrahydrofuran (THF). The solutions obtained are added dropwise with continuous stirring (speed of 500 rpm) to 0.25 ml of water. The squalenoylpaclitaxel precipitates in the form of nanoparticles between 100 and 200 nm in size. The THF is then completely evaporated off under reduced pressure using a Rotavapor® to obtain nanoparticulate squalenoylpaclitaxel suspensions whose size varies as a function of the concentration (see the table below).\n100 μl of squalenoyldeoxyspergualine dissolved in ethanol (4 mg/ml) are added dropwise to 2 ml of distilled water with vigorous stirring. After evaporating off the ethanol under reduced pressure using a Rotavapor®, a suspension of nanoparticles 162 nm in size (polydispersity index 0.12 characterized by a surface potential of 27.38±2.60 mV) is obtained.\nThe mean size of the nanoparticles and the polydispersity index of the nanoparticles are determined at a temperature of 20° C. by light scattering with a zetasizer machine (Malvern Instruments, UK). The measurements are taken after diluting the nanoparticle suspension in MilliQ® water."}, "[2]": {"test_system": "L1210 WT murine leukemia cell line", "experiment": "In vitro anticancer activity, MTT test on L1210 WT cells", "type": "cell-based", "conditions": "Mus musculus, 72 hours, nanoparticles, read-out: 50% inhibitory concentration (IC50)", "protocol": "The in vitro anticancer activity of the conjugates of squalenoyl/paclitaxel type in the form of nanoparticles is performed on Madison's 109 (M109) murine pulmonary tumor cell line. The M109 cells are cultured in RPMI 1640, supplemented with 10% fetal calf serum, 50 U·ml^−1 of penicillin and 50 μg·ml^−1 of streptomycin and 2 mM of L-glutamine. This analysis is performed using the 3-[4,5-dimethylthiazol-2-yl]-3,5-diphenyltetrazolium bromide (MTT) test, which measures the mitochondrial dehydrogenase activity. The cells in exponential growth phase are inoculated into a 96-well plate and preincubated for 24 hours at 37° C. in a humidified atmosphere with 5% CO2 in the air. Various dilutions of paclitaxel nanoparticles are added to the cells in the culture medium. Each dilution is tested three times. After 72 hours at 37° C., 200 μL of MTT solution in the cell culture medium (0.5 mg/ml) are added to each well. […] The absorbing power of the transformed dyestuff, which is proportional to the number of viable cells, is measured at 570 nm using a microplate reader (Metertech Σ 960, Fisher Bioblock, Illkirch, France). The percentage of surviving cells is calculated by determining the ratio of the absorbing power between the treated cells and the untreated cells.\nThe in vitro anticancer activity of the squalenoyldoxorubicin nanoparticles is evaluated on an L1210 WT murine leukemia cell line. […]"}, "[3]": {"test_system": "L1210 aggressive metastatic leukemia model", "experiment": "In vivo anticancer activity, L1210 aggressive metastatic leukemia model", "conditions": "13 mg·kg^−1 i.v. on days 1, 7 and 14, DBA/2 mice", "text": "DBA/2 mice (4 to 5 weeks old) weighing about 15-18 g were used for this study. As for Example 17, the mice are fed with standard mouse feed and water ad libitum. The L1210 aggressive metastatic leukemia model (a murine leukemia) is developed by intravenously injecting the L1210 cells at exponential growth (0.1×10^6 cells) as a suspension, into the mice. The tumor-bearing mice are divided into 2 groups of 5-6, i.e. the untreated mice and the mice treated with squalenoyldoxorubicin nanoparticles (13 mg·kg^−1, injected intravenously on days 1, 7 and 14, after injection of the tumor cells). After treatment, the mice are controlled regularly to check the differences in weight and the survival rate, these parameters making it possible to evaluate the efficacy of the anticancer activity."}, "[4]": {"test_system": "Madison's 109 (M109) murine pulmonary tumor cell line", "experiment": "In vitro anticancer activity, MTT test on M109 cells", "type": "cell-based", "conditions": "72 hours, nanoparticles, read-out: 50% inhibitory concentration (IC50)", "protocol": "The in vitro anticancer activity of the conjugates of squalenoyl/paclitaxel type in the form of nanoparticles is performed on Madison's 109 (M109) murine pulmonary tumor cell line. The M109 cells are cultured in RPMI 1640, supplemented with 10% fetal calf serum, 50 U·ml^−1 of penicillin and 50 μg·ml^−1 of streptomycin and 2 mM of L-glutamine. This analysis is performed using the 3-[4,5-dimethylthiazol-2-yl]-3,5-diphenyltetrazolium bromide (MTT) test, which measures the mitochondrial dehydrogenase activity. The cells in exponential growth phase are inoculated into a 96-well plate and preincubated for 24 hours at 37° C. in a humidified atmosphere with 5% CO2 in the air. Various dilutions of paclitaxel nanoparticles are added to the cells in the culture medium. Each dilution is tested three times. After 72 hours at 37° C., 200 μL of MTT solution in the cell culture medium (0.5 mg/ml) are added to each well. After incubating for 2 hours 30 minutes at 37° C., the culture medium is removed and the formazan crystals obtained are dissolved in 200 μL of an extraction solution (dimethyl sulfoxide). The absorbing power of the transformed dyestuff, which is proportional to the number of viable cells, is measured at 570 nm using a microplate reader (Metertech Σ 960, Fisher Bioblock, Illkirch, France). The percentage of surviving cells is calculated by determining the ratio of the absorbing power between the treated cells and the untreated cells."}, "[5]": {"test_system": "M109 subcutaneous tumoral model (murine pulmonary tumor)", "experiment": "In vivo anticancer activity, M109 subcutaneous tumoral model", "conditions": "160 mg·kg^−1 i.v. for 5 consecutive days, CD2F1 mice, FIG. 2", "text": "CD2F1 mice (4-5 weeks old) weighing about 15-18 g were used for this study. The mice are fed with standard mouse feed and water ad libitum. The M109 subcutaneous tumoral model (murine pulmonary tumor) is developed by injecting the M109 cells at exponential growth (1×10^6 cells) as a suspension, under the skin, into the lower portion of the abdomen of the mice. A palpable tumor (about 50-100 mm^3) is allowed to grow at the site of injection. The tumor-bearing mice are divided into 2 groups of 5-6, i.e. the untreated mice and the mice treated with squalenoyldiglycolyl-paclitaxel nanoparticles 160 mg·kg^−1 (injected intravenously for 5 consecutive days). The mice are controlled regularly to check the difference in the volume of the tumors, and thus to evaluate the anticancer efficacy."}, "mice (C57BL6)": {"test_system": "mice (C57BL6)", "type": "in vivo", "conditions": "4 mg/ml suspension i.v., 4×50 mg/kg (paclitaxel equivalent)", "protocol": "The nanoparticulate squalenoylpaclitaxel suspension as prepared in Example 3 (4 mg/ml) is directly injected intravenously into mice (C57BL6) at a dose of 4×50 mg/kg (paclitaxel equivalent); the injections take place on days 0, 5, 9 and 14. […] The direct intravenous injection of the Taxol solution (without dilution in 0.9% NaCl) leads to the immediate death of 100% of the treated mice. When the Taxol solution is prediluted in 0.9% NaCl, the maximum dose that can be injected is 20 mg/kg."}, "KB 3.1 cells": {"test_system": "KB 3.1 cells", "experiment": "Tubulin immunofluorescence (spindle-poisoning activity) by confocal fluorescence microscopy", "type": "cell-based, human", "conditions": "nanoparticles 5 μM, 14-16 hours, FIG. 1B", "protocol": "The characterization of this activity is performed by immunofluorescence according to the following protocol:\nDay 1: KB 3.1 cells originating from a human cervical carcinoma, and HT-29 cells corresponding to a human colon cancer cell line, are deposited on 6-well plates at a density of 20 000 cells/well (final volume 2 ml RPMI plus FCS). The cells are incubated at a temperature of 37° C. and at 5% CO2.\nDay 2: The cells are rinsed and the squalenoylpaclitaxel nanoparticles (concentration 5 μM) as prepared according to the protocol described in Example 3 are added thereto.\nDay 3: After 14-16 hours, rinsing is performed twice with PBS and the extraction solution (Triton X-100 plus 0.5% PEM-PIPES 100 mM, EGTA 2 mM, MgCl2 2 mM, pH 6.8) is then added. After 4 minutes, rinsing is performed, followed by addition of 2 ml of a 3% solution of formaldehyde in PEM. 40 minutes later, rinsing is performed and 20% FCS in PBS is added over 30 minutes. Murine anti-α-tubulin FITC monoclonal antibody (diluted to 1:200) is then added and the mixture is incubated for 1 hour. It is finally rinsed with PBS and an analysis by confocal fluorescence microscopy (Leica TCS SP2) is performed."}, "[6]": {"conditions": "20° C., zetasizer, diluted in MilliQ water, compositions of Example 15"}, "[7]": {"conditions": "Example 9: 100 μl of 4 mg/ml ethanol solution added to 2 ml distilled water"}},
  "note": "pIC50: −log10 of the molar value.",
  "data": [
    {"compound": "COc1cccc2c1C(=O)c1c(O)c3c(c(O)c1C2=O)CC(O)(C(=O)COC(=O)CC/C(C)=C/CC/C(C)=C/CC/C=C(\\C)CC/C=C(\\C)CCC=C(C)C)CC3OC1CC(N)C(O)C(C)O1", "note": "(stereo not drawn) [Example 14, 14-squalenoyldoxorubicin]", "values": [
      {"measurement": "Mean particle diameter", "setting": "[1]; [6]", "result": 138.2, "unit": "nm"},
      {"measurement": "Polydispersity index", "setting": "[1]; [6]", "result": 0.325},
      {"measurement": "pIC50", "setting": "[2]", "result": 6.54},
      {"measurement": "Anticancer activity (variations in weight of mice)", "setting": "[3]; FIG. 3", "result": "demonstrate effective anticancer activity"},
      {"measurement": "Survival rate", "setting": "[3]; FIG. 4", "result": "improved survival rate"}
    ]},
    {"compound": "CC(C)=CCC/C(C)=C/CC/C(C)=C/CC/C=C(\\C)CC/C=C(\\C)CCC(=O)NCCCNCCCCNC(=O)C(O)NC(=O)CCCCCCNC(=N)N", "note": "(stereo not drawn) [squalenoyldeoxyspergualine]", "values": [
      {"measurement": "Polydispersity index", "setting": "[1]; [7]", "result": 0.12},
      {"measurement": "Size of nanoparticles", "setting": "[1]; [7]", "result": 162, "unit": "nm"},
      {"measurement": "Surface potential", "setting": "[1]; [7]", "result": "27.38±2.60", "unit": "mV"}
    ]},
    {"compound": "Squalenoyldiglycolyl-paclitaxel [Example 11]", "values": [
      {"measurement": "Mean particle diameter", "setting": "[1]; [6]", "result": 150.0, "unit": "nm"},
      {"measurement": "Polydispersity index", "setting": "[1]; [6]", "result": 0.075},
      {"measurement": "pIC50", "setting": "[4]", "result": 6.76},
      {"measurement": "Anticancer activity: progression of tumor volume", "setting": "[5]", "result": "show anticancer activity by controlling the progression of the M109 tumors"}
    ]},
    {"compound": "Squalenoylsuccinyl-PEG340-paclitaxel [Example 12]", "values": [
      {"measurement": "Mean particle diameter", "setting": "[1]; [6]", "result": 643.9, "unit": "nm"},
      {"measurement": "Polydispersity index", "setting": "[1]; [6]", "result": 0.081},
      {"measurement": "pIC50", "setting": "[4]", "result": 6.31}
    ]},
    {"compound": "monosqualenoylpaclitaxel", "values": [
      {"measurement": "Polydispersity index", "setting": "[1]; 0.36 mmol squalenoylpaclitaxel in 0.25 ml THF added to 0.25 ml water", "result": 0.39},
      {"measurement": "Polydispersity index", "setting": "[1]; 0.88 mmol squalenoylpaclitaxel in 0.25 ml THF added to 0.25 ml water", "result": 0.30},
      {"measurement": "Polydispersity index", "setting": "[1]; 1.76 mmol squalenoylpaclitaxel in 0.25 ml THF added to 0.25 ml water", "result": 0.31},
      {"measurement": "Diameter", "setting": "[1]; 0.36 squalenoylpaclitaxel in 0.25 ml THF added to 0.25 ml water", "result": "151 ± 84", "unit": "nm"},
      {"measurement": "Diameter", "setting": "[1]; 0.88 squalenoylpaclitaxel in 0.25 ml THF added to 0.25 ml water", "result": "169 ± 92", "unit": "nm"},
      {"measurement": "Diameter", "setting": "[1]; 1.76 squalenoylpaclitaxel in 0.25 ml THF added to 0.25 ml water", "result": "177 ± 99", "unit": "nm"},
      {"measurement": "Signs of toxicity", "setting": "mice (C57BL6); days 0, 5, 9 and 14, C57BL6 mice", "result": "do not show any sign of toxicity"},
      {"measurement": "Mortality", "setting": "mice (C57BL6); days 0, 5, 9 and 14, period of at least one month", "result": "No mortality is recorded"},
      {"measurement": "Formation of tubulin lumps (spindle-poisoning activity)", "setting": "KB 3.1 cells", "result": "formation of tubulin lumps is clearly visible"}
    ]},
    {"compound": "squalenoylC22-paclitaxel [Example 13]", "values": [
      {"measurement": "Mean particle diameter", "setting": "[1]; [6]", "result": 239.3, "unit": "nm"},
      {"measurement": "Polydispersity index", "setting": "[1]; [6]", "result": 0.077},
      {"measurement": "pIC50", "setting": "[4]", "result": 5.14}
    ]},
    {"compound": "squalenoylsuccinylpaclitaxel [Example 10]", "values": [
      {"measurement": "Mean particle diameter", "setting": "[1]; [6]", "result": 250.9, "unit": "nm"},
      {"measurement": "Polydispersity index", "setting": "[1]; [6]", "result": 0.061},
      {"measurement": "pIC50", "setting": "[4]", "result": 7.14}
    ]}
  ]
}
